Measured values reported in US12312333B2, “SK channel positive allosteric modulators” (Chapman University, priority 2021, dated 2025).
Entries after “also recorded” stand apart in the source; their conditions may differ.

Legend:
rat KCa2.2a [1] = biological target: T1, rat KCa2.2a (UniProt P0DP23+P70604); assay: Inside-out patch-clamp potentiation of KCa2.2a channels expressed in HEK293 cells; format: cell-based; settings: for Emax: HEK293, current at −90 mV at maximal compound concentration normalized to 10 μM Ca2+, read-out: Emax on KCa2.2a channels (I/Imax); for EC50: inside-out patch, HEK293, 0.15 μM Ca2+, current at −90 mV, read-out: EC50 (mean ± SEM, μM) on potentiating KCa2.2a channels; for efficacy (Emax) on KCa2.2a channels: normalized to 10 μM Ca2+
T1 construct: expressed in transfected cells; host or cells: HEK293
Method: The impact of adding one substituent group at C4 of the cyclohexane moiety of CyPPA with either electron donating (OH (2a), NH2 (2b), CH2OH (2c), and OCH3 (2d)) or electron-withdrawing groups (F (2e) and NO2 (2f)) was explored. The potency of the newly synthesized compounds compared to the template CyPPA was measured via inside-out patch clamp electrophysiology recordings with KCa2.2a channels heterologously expressed in HEK293 cells (FIG. 1A). […] The responses induced by 10 μM Ca^2+ are considered the maximal currents of the KCa2.2a channels. To evaluate the efficacy (Emax) of compounds on KCa2.2a channels, the current amplitudes at −90 mV in response to the maximal concentration of compounds were normalized to that obtained at 10 μM Ca^2+ (I/Imax (%), FIG. 1C).
The effect of newly synthesized compounds on the KCa2.x/KCa3.1 channels was investigated as previously described (Nam, Y. W.; et al, Acta Physiol (Oxf) 2020, e13552; Nam, Y. W.; et al. Scientific reports 2018, 8 (1), 10749). Briefly, the rat KCa2.2a, human KCa2.1, human KCa2.3 or human KCa3.1 channels cDNA constructs were either generated in-house or through molecular cloning services (Genscript). The channel cDNAs, along with CaM and GFP, at a ratio of 7:4:2 (ORF ratios), were transfected into HEK293 cells by the calcium-phosphate method. KCa currents were recorded 1-2 days after transfection, with an Axon200B amplifier (Molecular Devices) at room temperature. The resistance of the patch electrodes ranged from 3-5 MΩ. The pipette solution contained (in mM): 140 KCl, 10 Hepes (pH 7.4), 1 MgSO4. The bath solution containing (in mM): 140 KCl, 10 Hepes (pH 7.2), 1 EGTA, 0.1 Dibromo-BAPTA, and 1 HEDTA was mixed with Ca^2+ to obtain the desired free Ca^2+ concentrations, calculated using the software by Chris Patton of Stanford University (https://somapp.ucdmc.ucdavis.edu/pharmacology/bers/maxchelator/webmaxc/webmaxcS.htm). The Ca^2+ concentrations were verified using a Ca^2+ calibration buffer kit (Thermo Fisher Scientific). Briefly, a standard curve was generated using the Ca^2+ buffers from the kit and a fluorescence Ca^2+ indicator. Then, the Ca^2+ concentrations of the bath solution were determined through interpolation on the standard curve.
High resistance seals (>1 GΩ) were formed before inside-out patches were obtained. The seal resistance of inside-out patches was >1 GΩ, when the intracellular face was initially exposed to a zero-Ca^2+ bath solution. Currents were recorded by repetitive 1-s-voltage ramps from −100 mV to +100 mV from a holding potential of 0 mV. The currents were filtered at 2 kHz and digitized at a sampling frequency of 10 kHz. At the end of experiment, the integrity of the patch was examined by switching the bath solution back to the zero-Ca^2+ buffer. Data from patches, which maintained the seal resistance (>1 GΩ) after solution changes, were used for further analysis.
To measure the effect of CyPPA (Alomone Labs) and newly synthesized compounds, the intracellular face was exposed to bath solutions with 0.15 μM Ca^2+. One minute after switching of bath solutions, ten sweeps with a 1-s interval were recorded at a series of concentrations of compound in the presence of 0.15 μM Ca^2+. The maximal KCa2.x/KCa3.1 current in response to 10 μM Ca^2+ was then recorded.
Patch-clamp recordings were analyzed using Clampfit 10.5 (Molecular Devices LLC) and concentration-response curves were analyzed in GraphPad Prism 9.0.2 (GraphPad Software Inc.). To construct the concentration-dependent potentiation of channel activities by compound, the current amplitudes at −90 mV in response to various concentrations of the compound were normalized to that obtained at a maximal concentration of compound. The normalized currents were plotted as a function of the concentrations of the compound. EC50 values and Hill coefficients were determined by fitting the data points to a standard concentration-response curve (Y=100/(1+(X/EC50)^−Hill)). […]

[2] = Solubility noted during patch-clamp concentration-response; format: physicochemical; settings: bath solution, 200 μM
human KCa2.3 channels = biological target: T2, human KCa2.3 channels (Homo sapiens, UniProt P0DP23+Q9UGI6); settings: cited from earlier work
T2 construct: expressed in transfected cells; host or cells: HEK293

rat KCa2.2a [3] = biological target: T1, rat KCa2.2a; settings: KCa2.2/KCa2.3 vs KCa2.1/KCa3.1; cited from earlier work

| Compound | Emax (rat KCa2.2a [1]) [%] | EC50 (rat KCa2.2a [1]) [µM] | efficacy (Emax) on KCa2.2a channels (rat KCa2.2a [1]) | solubility [2] | potency on KCa2.3 compared to KCa2.2a channels, background statement (human KCa2.3 channels) | subtype selectivity, previously reported (rat KCa2.2a [3]) |
| --- | --- | --- | --- | --- | --- | --- |
| N^1-(4-Chloro-2-fluorophenyl)-6-(3,5-dimethyl-1H-pyrazol-1-yl)pyrimidine-2,4-diamine [Compound 3d] | – | > 100 | – | – | – | – |
| Cc1cc(NC2CCCCC2)nc(-n2nc(C)cc2C)n1 [CyPPA, N-cyclohexyl-2-(3,5-dimethyl-1H-pyrazol-1-yl)-6-methylpyrimidin-4-amine] | 82.4 ± 4.91 | 7.48 ± 0.56 | – | – | slightly but significantly higher potency on KCa2.3 channels than KCa2.2a channels | selectively potentiates KCa2.2a and KCa2.3, but not KCa2.1 and KCa3.1 channel subtypes; also recorded: potentiate the KCa2.2 and KCa2.3, but not the KCa2.1 and KCa3.1 channel subtypes |
| COc1cc2nc(Nc3cc(C)nc(-n4nc(C)cc4C)n3)[nH]c2cc1OC [Compound 2w, N-(2-(3,5-Dimethyl-1H-pyrazol-1-yl)-6-methylpyrimidin-4-yl)-5,6-dimethoxy-1H-benzo[d]imidazol-2-amine] | – | > 100 | – | – | – | – |

Now from value to compound, other results behind:

| Emax (rat KCa2.2a [1]) [%] | EC50 (rat KCa2.2a [1]) [µM] | efficacy (Emax) on KCa2.2a channels (rat KCa2.2a [1]) | solubility [2] | Compound | potency on KCa2.3 compared to KCa2.2a channels, background statement (human KCa2.3 channels) | subtype selectivity, previously reported (rat KCa2.2a [3]) |
| --- | --- | --- | --- | --- | --- | --- |
| 50 ± 5.78 | 37.6 ± 3.66 | reduced efficacy | limited solubility at 200 μM | Cc1cc(Nc2cc(C(=O)O)ccc2F)nc(-n2nc(C)cc2C)n1 [Compound 2v, 3-((2-(3,5-Dimethyl-1H-pyrazol-1-yl)-6-methylpyrimidin-4-yl)amino)-4-fluorobenzoic acid] | – | – |
| – | 4.51 ± 0.44 | retained their efficacy | – | Cc1cn(-c2nc(C)cc(Nc3cc(Cl)ccc3F)n2)cn1 [Compound 5a, N-(5-Chloro-2-fluorophenyl)-6-methyl-2-(4-methyl-1H-imidazol-1-yl)pyrimidin-4-amine] | – | – |
| – | 1.89 ± 0.16 | – | – | Cc1cc(Nc2cc(F)ccc2F)nc(-n2nc(C)cc2C)n1 [Compound 2n, N-(2,5-Difluorophenyl)-2-(3,5-dimethyl-1H-pyrazol-1-yl)-6-methylpyrimidin-4-amine] | – | – |
